Experimental data as given in patent US20260263547A1, “COMPOSITION FOR PREVENTING, AMELIORATING, OR TREATING ARTHRITIS, CONTAINING POTENTILLA CHINENSIS EXTRACT OR APIGENIN-7-O-GLUCURONIDE AS ACTIVE INGREDIENT” (BELABELBIO INC., priority 2023, published 2026).

Assays:
[1] = test system: Collagen Type II Alpha 1; assay: IL-1β-induced Collagen Type II Alpha 1 synthesis in SW-1353 chondrocytes (ELISA); format: cell-based, Human; conditions: IL-1β 40 ng/ml, 24 hours, extract 50, 100, 200 ppm, apigenin-7-O-glucuronide 50, 100, 200 μM
Procedure: To evaluate the stimulatory efficacy of the extract of Potentilla chinensis from Example 1 and apigenin-7-O-glucuronide from Example 2 on IL-1β-induced Collagen Type II Alpha 1 synthesis in chondrocytes, the secretion of Collagen Type II Alpha 1 was measured using a Human Collagen II Alpha 1 ELISA kit (NBP2-75853, Novus, USA). Specifically, SW-1353 chondrocytes were obtained from the American Type Culture Collection (ATCC, MD, USA) and cultured in DMEM medium containing 10% FBS and 1% antibiotic-antimycotic under 5% CO2 at 37° C. The cells were seeded into 6-well plates at a density of 2.0×10^5 cells/2.0 mL/well and allowed to adhere for 24 hours, then treated with IL-1β (40 ng/ml) in DMEM. The extract of Potentilla chinensis from Example 1 was treated at concentrations of 50, 100, and 200 ppm, and apigenin-7-O-glucuronide from Example 2 was treated at concentrations of 50, 100, and 200 μM, followed by incubation for 24 hours. After 24 hours, the amount of Collagen II Alpha 1 in the supernatant was quantified using the ELISA kit, and the results are shown in FIGS. 9A and 9B.

[2] = test system: IL-1β mRNA; assay: LPS-induced IL-1β mRNA expression in RAW264.7 macrophages (real-time PCR); format: cell-based; conditions: LPS 500 ng/mL, 24 hours, extract 50, 100, 200 ppm, apigenin-7-O-glucuronide 50, 100, 200 μM
Procedure: (§1) Specifically, RAW264.7 macrophages were obtained from the American Type Culture Collection (ATCC, MD, USA) and cultured in DMEM medium containing 10% FBS and 1% antibiotic-antimycotic under 5% CO2 at 37° C. The cells were seeded into 6-well plates at a density of 8.0×10^5 cells/1.5 mL/well and allowed to adhere for 24 hours, then treated with LPS (500 ng/mL) in DMEM to induce inflammation. The extract of Potentilla chinensis from Example 1 was treated at concentrations of 50, 100, and 200 ppm, and apigenin-7-O-glucuronide from Example 2 was treated at concentrations of 50, 100, and 200 μM, followed by incubation for 24 hours. After 24 hours, IL-1β mRNA was extracted from the cells, synthesized into cDNA, and quantitative real-time PCR was performed using specific primers to evaluate the expression level of IL-1β.

[3] = test system: MMP-1; assay: PMA-induced MMP-1 secretion in SW-1353 chondrocytes (ELISA); format: cell-based, Human; conditions: PMA 50 ng/mL, 24 hours, extract 50, 100, 200 ppm, apigenin-7-O-glucuronide 50, 100, 200 μM
Procedure: To evaluate the inhibitory efficacy of the extract of Potentilla chinensis from Example 1 and apigenin-7-O-glucuronide from Example 2 on PMA-induced MMP-1 production in chondrocytes, the amount of MMP-1 secreted was measured using a Human MMP-1 ELISA kit (ab100603, Abcam, USA). Specifically, SW-1353 chondrocytes were obtained from the American Type Culture Collection (ATCC, MD, USA) and cultured in DMEM medium containing 10% FBS and 1% antibiotic-antimycotic under 5% CO2 at 37° C. The cells were seeded into 6-well plates at a density of 2.0×10^5 cells/2.0 mL/well and allowed to adhere for 24 hours, then treated with PMA (50 ng/mL) in DMEM. The extract of Potentilla chinensis from Example 1 was treated at concentrations of 50, 100, and 200 ppm, and apigenin-7-O-glucuronide from Example 2 was treated at concentrations of 50, 100, and 200 μM, followed by incubation for 24 hours. After 24 hours, the amount of MMP-1 in the supernatant was quantified using the ELISA kit, and the results are shown in FIGS. 6A and 6B.

[4] = test system: COX-2 mRNA; assay: LPS-induced COX-2 mRNA expression in RAW264.7 macrophages (real-time PCR); format: cell-based; conditions: LPS 500 ng/mL, 24 hours, extract 50, 100, 200 ppm, apigenin-7-O-glucuronide 50, 100, 200 μM
Procedure: as §1, with “To confirm the inhibitory efficacy of the extract of Potentilla chinensis from Example 1 and apigenin-7-O-glucuronide from Example 2 on LPS-induced COX-2 mRNA expression, the expression level of COX-2 mRNA was measured using real-time polymerase chain reaction (PCR). Specifically,” for “Specifically,”, “cells/2.0” for “cells/1.5”, “COX-2” for “IL-1β”, “COX-2.” for “IL-1β.”

[5] = test system: MMP-9; assay: PMA-induced MMP-9 secretion in SW-1353 chondrocytes (ELISA); format: cell-based, Human; conditions: PMA 50 ng/mL, 24 hours, apigenin-7-O-glucuronide 50, 100, 200 μM
Procedure: To evaluate the inhibitory efficacy of apigenin-7-O-glucuronide from Example 2 on PMA-induced MMP-9 production in chondrocytes, the amount of MMP-9 secreted was measured using a Human MMP-9 ELISA kit (ab246539, Abcam, USA). Specifically, SW-1353 chondrocytes were obtained from the American Type Culture Collection (ATCC, MD, USA) and cultured in DMEM medium containing 10% FBS and 1% antibiotic-antimycotic under 5% CO2 at 37° C. The cells were seeded into 6-well plates at a density of 2.0×10^5 cells/2.0 mL/well and allowed to adhere for 24 hours, then treated with PMA (50 ng/mL) in DMEM. The extract of Potentilla chinensis from Example 1 was treated at concentrations of 50, 100, and 200 ppm, and apigenin-7-O-glucuronide from Example 2 was treated at concentrations of 50, 100, and 200 μM, followed by incubation for 24 hours. After 24 hours, the amount of MMP-1 in the supernatant was quantified using the ELISA kit, and the results are shown in FIG. 8.

[6] = test system: nitric oxide (NO) production; assay: LPS-induced nitric oxide (NO) production in RAW264.7 macrophages (Griess reagent); format: cell-based; conditions: LPS 500 ng/ml, 24 hours, extract 50, 100, 200 ppm, apigenin-7-O-glucuronide 50, 100, 200 μM
Procedure: To confirm the NO-reducing effect of the extract of Potentilla chinensis from Example 1 and apigenin-7-O-glucuronide from Example 2, an inflammatory response was induced with LPS and subsequent changes in NO were measured. Specifically, RAW264.7 macrophages were obtained from the American Type Culture Collection (ATCC, MD, USA) and cultured in DMEM (Dulbecco's Modified Eagle's Medium) containing 10% FBS and 1% antibiotic-antimycotic under 5% CO2 at 37° C. The cells were seeded into 6-well plates at a density of 8.0×10^5 cells/1.5 mL/well and allowed to adhere for 24 hours, then treated with LPS (500 ng/ml) to induce inflammation. The extract of Potentilla chinensis from Example 1 was added at concentrations of 50, 100, and 200 ppm, and apigenin-7-O-glucuronide from Example 2 was added at concentrations of 50, 100, and 200 μM, followed by incubation for 24 hours. Next, 100 μL of the culture supernatant was transferred to a 96-well plate, mixed with 100 μL of Griess reagent (0.1% N-(1-naphtyl)ethylenediamine, 1% sulfanilamide), and reacted for 10 minutes. The absorbance of the resulting azo-derivative was measured at 540 nm using a microplate reader (BioTek, Vermont, USA). The measured absorbance was converted into nitrite concentration using a standard curve prepared with sodium nitrite dilutions, and the amount of NO produced was calculated.

SMILES: O=C(O)[C@H]1O[C@@H](Oc2cc(O)c3c(=O)cc(-c4ccc(O)cc4)oc3c2)[C@H](O)[C@@H](O)[C@@H]1O [apigenin-7-O-glucuronide]
- IL-1β-induced Collagen Type II Alpha 1 synthesis [1]: significantly increased Collagen Type II Alpha 1 synthesis in a concentration-dependent manner
- LPS-induced IL-1β mRNA expression [2]: significantly inhibited IL-1β mRNA expression in a concentration-dependent manner
- PMA-induced MMP-1 secretion [3]: significantly inhibited MMP-1 secretion in a concentration-dependent manner
- LPS-induced COX-2 mRNA expression [4]: significantly inhibited COX-2 mRNA expression
- PMA-induced MMP-9 secretion [5]: significantly inhibited MMP-9 secretion in a concentration-dependent manner
- LPS-induced NO production [6]: significantly inhibited NO production in a concentration-dependent manner
